Results as given in patent publication US20250206758A1, “SUBSTITUTED BRIDGED RING INHIBITOR, PREPARATION METHOD THEREFOR AND APPLICATION THEREOF” (SUZHOU ZELGEN BIOPHARMACEUTICALS CO., LTD., priority 2022, published 2025).
Read-outs that look alike come from different tables or passages of the source.

Tests used:
[1] = test system: GP2D; experiment: Cell proliferation inhibition, GP2D (CellTiter-Glo 3D, 7 days); assay type: cell-based
Summary of the method: (§1)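 Cells exposed to compound (final DMSO 0.5%) in duplicate for 7 days at 37 °C, 5% CO2, then CellTiter-Glo 3D added with 20 min shaking and 2 h dark incubation before luminescence. Inhibition normalized to medium and blank controls; IC50, minimum and maximum inhibition from curve fits.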

[2] = test system: AsPC-1; experiment: Cell proliferation inhibition, AsPC-1 (CellTiter-Glo 3D, 7 days); assay type: cell-based; conditions: AsPC-1, 7 days
Summary of the method: as §1

Compound | IC50 ([1]; 168 h) | IC50 ([2]; Homo sapiens, ASPC1, 168 h) | IC50 [1] | IC50 [2]
C#Cc1c(F)ccc2cc(O)cc(-c3ncc4c(N5C[C@H]6CC[C@@H](C5)N6)nc(OC[C@]56CCCN5C[C@]5(CC5(F)F)C6)nc4c3F)c12 [Example 16B-2, 4-(4-((1R,5S)-3,8-diazabicyclo[3.2.1]octan-3-yl)-2-(((1R,7a′R)-2,2-difluorodihydro-1′H,3′H-spiro[cyclopropan-1,2′-pyrrolizin]-7a′(5′H)-yl)methoxy)-8-fluoropyridino[4,3-d]pyrimidin-7-yl)-5-ethynyl-6-fluoronaphthalen-2-ol] | 1.55 nM | 9.22 nM | – | –
C#Cc1c(F)ccc2cc(O)cc(-c3ncc4c(N5CCC6CCC(C5)N6)nc(OC[C@@]56CCCN5C[C@@]5(CC5(F)F)C6)nc4c3F)c12 (stereo partly drawn) [Example 28, 4-(4-(3,9-diazabicyclo[4.2.1]nonan-3-yl)-2-(((1S,7a'S)-2,2-difluorodihydro-1′H,3′H-spiro[cyclopropan-1,2′-pyrrolizin]-7a′(5′H)-yl)methoxy)-8-fluoropyridino[4,3-d]pyrimidin-7-yl)-5-ethynyl-6-fluoronaphthalen-2-ol] | 19.8 nM | 188 nM | – | –
Nc1c(Cl)cc(Cl)c(F)c1-c1ncc2c(N3C[C@H]4CC[C@@H](C3)N4)nc(OC[C@@]34CCCN3C[C@@]3(CC3(F)F)C4)nc2c1F [Example 25, 2-(4-((1R,5S)-3,8-diazabicyclo[3.2.1]octan-3-yl)-2-(((1S,7a'S)-2,2-difluorodihydro-1′H,3′H-spiro[cyclopropan-1,2′-pyrrolizin]-7a′(5′H)-yl)methoxy)-8-fluoropyridino[4,3-d]pyrimidin-7-yl)-4,6-dichloro-3-fluoroaniline] | > 100 nM | > 1000 nM | – | –
CC(=O)Nc1cc(Cl)c(C(F)(F)F)c(-c2ncc3c(N4C[C@H]5CC[C@@H](C4)N5)nc(OC[C@@]45CCCN4C[C@@]4(CC4(F)F)C5)nc3c2F)c1 [Example 38, N-(3-(4-((1R,5S)-3,8-diazabicyclo[3.2.1]octan-3-yl)-2-(((1S,7a'S)-2,2-difluorodihydro-1′H,3′H-spiro[cyclopropan-1,2′-pyrrolizin]-7a′(5′H)-yl)methoxy)-8-fluoropyridino[4,3-d]pyrimidin-7-yl)-5-chloro-4-(trifluoromethyl)phenyl)acetamide] | 14.1 nM | 142 nM | – | –
C#Cc1c(F)ccc2cc(O)cc(-c3ncc4c(N5C[C@H]6CC[C@@H](C5)N6)nc(OC[C@@]56C[C@H](F)CN5C[C@@]5(CC5(F)F)C6)nc4c3F)c12 [Example 15G, 4-(4-((1R,5S)-3,8-diazabicyclo[3.2.1]octan-3-yl)-8-fluoro-2-(((1S,6'S,7a′R)-2,2,6′-trifluorodihydro-1′H,3′H-spiro[cyclopropan-1,2′-pyrrolizin]-7a′(5′H)-yl)methoxy)pyridino[4,3-d]pyrimidin-7-yl)-5-ethynyl-6-fluoronaphthalen-2-ol] | 39.1 nM | 329 nM | – | –
C#Cc1c(F)ccc2cc(O)cc(-c3ncc4c(N5C[C@H]6CC[C@@H](C5)N6)nc(OC[C@]56C[C@@H](F)CN5C[C@]5(CC5(F)F)C6)nc4c3F)c12 [Example 15B, 4-(4-((1R,5S)-3,8-diazabicyclo[3.2.1]octan-3-yl)-8-fluoro-2-(((1R,6′R,7a'S)-2,2,6′-trifluorodihydro-1′H,3′H-spiro[cyclopropan-1,2′-pyrrolizin]-7a′(5′H)-yl)methoxy)pyridino[4,3-d]pyrimidin-7-yl)-5-ethynyl-6-fluoronaphthalen-2-ol] | 7.35 nM | 50.8 nM | – | –
N#Cc1cc(N)cc(-c2ncc3c(N4C[C@H]5CC[C@@H](C4)N5)nc(OC[C@@]45CCCN4C[C@@]4(CC4(F)F)C5)nc3c2F)c1C(F)(F)F [Example 43, 3-(4-((1R,5S)-3,8-diazabicyclo[3.2.1]octan-3-yl)-2-(((1S,7a'S)-2,2-difluorodihydro-1′H,3′H-spiro[cyclopropan-1,2′-pyrrolizin]-7a′(5′H)-yl)methoxy)-8-fluoropyridino[4,3-d]pyrimidin-7-yl)-5-amino-2-(trifluoromethyl)benzonitrile] | 4.17 nM | 115 nM | – | –
Cc1nc(N)cc(-c2ncc3c(N4C[C@H]5CC[C@@H](C4)N5)nc(OC[C@@]45CCCN4C[C@@]4(CC4(F)F)C5)nc3c2F)c1C(F)(F)F [Example 55, 4-(4-((1R,5S)-3,8-diazabicyclo[3.2.1]octan-3-yl)-2-(((1S,7a'S)-2,2-difluorodihydro-1′H,3′H-spiro[cyclopropan-1,2′-pyrrolizin]-7a′(5′H)-yl)methoxy)-8-fluoropyridino[4,3-d]pyrimidin-7-yl)-6-methyl-5-(trifluoromethyl)pyridin-2-amine] | 6.5 nM | 56.7 nM | – | –
C#Cc1c(F)ccc2cc(O)cc(-c3ncc4c(N5C[C@H]6CC[C@@H](C5)N6)nc(OCC56CC(F)(F)CN5CC5(CC5)C6)nc4c3F)c12 (stereo partly drawn) [Example 14, 4-(4-((1R,5S)-3,8-diazabicyclo[3.2.1]octan-3-yl)-2-((6′,6′-difluorotetrahydro-3′-H-spiro[cyclopropan-1,2′-pyrrolizin]-8a′(1′H)-yl)methoxy)-8-fluoropyridino[4,3d]pyrimidin-7-yl)-5-ethynyl-6-fluoronaphthalen-2-ol] | – | – | > 100 nM | 921 nM
(1S,7a'S)-7a′-(((4-(1R,5S)-3,8-diazabicyclo[3.2.1]octan-3-yl)-7-(8-ethynyl-7-fluoronaphthol-1-yl)-8-fluoropyridino[4,3-d]pyrimidin-2-yl)oxy)methyl)-2,2-difluorodihydro-1′H,3′H-spiro[cyclopropan-1,2′-pyrrolizin] [Example 21] | – | – | 4.92 nM | 19.1 nM
C#Cc1c(F)ccc2cc(O)cc(-c3ncc4c(N5C[C@H]6CC[C@@H](C5)N6)nc(OC[C@]56C[C@@H](F)CN5CC5(CC5)C6)nc4c3F)c12 [Example 10A, 4-(4-((1R,5S)-3,8-diazabicyclo[3.2.1]octan-3-yl)-8-fluoro-2-(((6′R,7a'S)-6′-fluorodihydro-1′H,3′H-spiro[cyclopropan-1,2′-pyrrolizin]-7a′(5′H)-yl)methoxy)pyridino[4,3-d]pyrimidin-7-yl)-5-ethynyl-6-fluoronaphthalen-2-ol] | 1.07 nM | 23.5 nM | – | –
N#Cc1c(Cl)cc(N)cc1-c1ncc2c(N3C[C@H]4CC[C@@H](C3)N4)nc(OC[C@@]34CCCN3C[C@@]3(CC3(F)F)C4)nc2c1F [Example 49, 2-(4-((1R,5S)-3,8-diazabicyclo[3.2.1]octan-3-yl)-2-(((1S,7a'S)-2,2-difluorodihydro-1′H,3′H-spiro[cyclopropan-1,2′-pyrrolizin]-7a′(5′H)-yl)methoxy)-8-fluoropyridino[4,3-d]pyrimidin-7-yl)-4-amino-6-chlorobenzonitrile] | 24.4 nM | > 1000 nM | – | –
Nc1cc(F)c(C(F)(F)F)c(-c2ncc3c(N4C[C@H]5CC[C@@H](C4)N5)nc(OC[C@@]45CCCN4C[C@@]4(CC4(F)F)C5)nc3c2F)c1 [Example 44, 3-(4-((1R,5S)-3,8-diazabicyclo[3.2.1]octan-3-yl)-2-(((1S,7a'S)-2,2-difluorodihydro-1′H,3′H-spiro[cyclopropan-1,2′-pyrrolizin]-7a′(5′H)-yl)methoxy)-8-fluoropyridino[4,3-d]pyrimidin-7-yl)-5-fluoro-4-(trifluoromethyl)aniline] | 1.6 nM | 23.3 nM | – | –
